Source: patent publication US7749983B2, “Metabolically stable alkoxyalkyl esters of antiviral or antiproliferative phosphonates, nucleoside phosphonates and nucleoside phosphates” (priority 2006, dated 2010)
Where “and” joins values, the source holds several entries; their conditions need not be identical. Equal values may be shown once. Read-outs that look alike come from different tables or passages of the source.

Legend:
[1] = tested on: vaccinia virus strain, Copenhagen; assay: microbe, parasite or virus in culture; format: cell-based; settings: for EC50: read-out: Vaccinia Copenhagen EC50
[2] = tested on: Ectromelia Virus (ECTV, MOS strain); assay: microbe, parasite or virus in culture; format: cell-based
ectromelia virus (ECTV) = tested on: ectromelia virus (ECTV); parameters: species or system A/Ncr mice; settings: mouse, in vivo; for MDD, Mean day of death / Mortality: po
HFF cells = assay: Neutral-red uptake assay for toxicity; settings: 7 days
[3] = tested on: cowpox virus, strain Brighton; assay: microbe, parasite or virus in culture; format: cell-based; settings: for EC50: read-out: Cowpox Brighton EC50
[4] = Neutral-red uptake assay for toxicity; settings: human, HFF cells
[5] = Metabolic stability testing with human liver S9 fractions; settings: FIG. 3; 37° C., protein 3 mg/mL, compound 1 μM
[6] = Metabolic stability testing with monkey liver S9 fractions; settings: FIG. 3; 37° C., protein 3 mg/mL, compound 1 μM
[7] = read-out: Ectromelia Virus EC50

For “14-methyl-pentadecyloxypropyl cidofovir [Compound 14M-PDP-CDV]”, the EC50 [1] was 140 nM, the EC50 [2, 7] was 170 nM and the “MDD, Mean day of death” value (ectromelia virus (ECTV); 2.5 mg/kg) was 14. The Mortality (ectromelia virus (ECTV); 2.5 mg/kg) was 1/5, the Mortality (ectromelia virus (ECTV); 5 mg/kg) was 0/5 and the Mortality (ectromelia virus (ECTV); 10 mg/kg) was 0/5. For the same compound, the CC50 (HFF cells; Table 3, neutral-red uptake) was 18000 ± 1100 nM and the EC50 [3] was 130 nM.

With `CC(C)CCCCCCCCCCCCCCOCCOP(=O)(O)CO[C@H](CO)Cn1cnc2c(N)ncnc21` [15M-HDE-HPMPA, 3-(15-methylhexadceyloxy)ethyl (S)-HPMPA] the EC50 [2, 7] was 12 nM.

`CCCCCCCCCCCCCCCCCCOCCOP(=O)(O)CO[C@H](CO)Cn1cnc2c(N)ncnc21` [ODE-(S)-HPMPA] gave an EC50 [1] of 8 nM, a CC50 (HFF cells; Table 4, neutral-red uptake) of 2100 nM and an EC50 [3] of 12 nM.

In the case of `Nc1ccn(C[C@@H](CO)OCP(=O)(O)O)c(=O)n1` [CDV, cidofovir], the “Vaccinia Copenhagen SI (Selectivity Index) = CC50/EC50” value [1] is reported as >17 and >16, the EC50 ([1]; Orthopoxvirus vaccinia, HFF) is reported as 19000 ± 9900 nM and the EC50 [1] is reported as 19400 nM. The CC50 (HFF cells; Table 4, neutral-red uptake) was over 317000 nM, the CC50 at 7 days [4] was over 317000 nM and the “Cowpox Brighton SI (Selectivity Index) = CC50/EC50” value [3] was >10 and >8.3. It also gave an EC50 ([3]; Cowpox virus, HFF) of 31000 ± 1700 nM and an EC50 [3] of 38100 nM.

In the case of `CC(C)CCCCCCCCCCCCOCCCOP(=O)(O)CO[C@H](CO)Cn1ccc(N)nc1=O` [Compound 13M-TDP-CDV, 13-methyl-tetradecyloxypropyl cidofovir], the EC50 [1] is reported as 130 nM, the EC50 [2, 7] is reported as 400 nM and the “MDD, Mean day of death” value (ectromelia virus (ECTV); 2.5 mg/kg) is reported as 9.3. For the same compound, the Mortality (ectromelia virus (ECTV); 2.5 mg/kg) was 4/5, the Mortality (ectromelia virus (ECTV); 5 mg/kg) was 0/5 and the Mortality (ectromelia virus (ECTV); 10 mg/kg) was 0/5. It also gave a CC50 (HFF cells; Table 3, neutral-red uptake) of 41000 ± 2000 nM and an EC50 [3] of 200 nM.

For `CCCCCCCCCCCCCCCCOCCCOP(=O)(O)CO[C@H](CO)Cn1ccc(N)nc1=O` [HDP-CDV, hexadecyloxypropyl-CDV, reference compound], the “Vaccinia Copenhagen SI (Selectivity Index) = CC50/EC50” value [1] was 470, the EC50 ([1]; Orthopoxvirus vaccinia, HFF) was 200 nM and the CC50 (in vitro) was 10000 nM. The EC50 ([2]; Ectromelia virus, CV-1, read-out: Ectromelia Virus EC50) was 140 nM, the “MDD, Mean day of death” value (ectromelia virus (ECTV); 2.5 mg/kg) was 13 and the Mortality (ectromelia virus (ECTV); 2.5 mg/kg) was 2/5. For the same compound, the Mortality (ectromelia virus (ECTV); 5 mg/kg) was 0/5, the Mortality (ectromelia virus (ECTV); 10 mg/kg) was 0/5 and the CC50 at 7 days [4] was 94000 nM. The “Cowpox Brighton SI (Selectivity Index) = CC50/EC50” value [3] was 470 and the EC50 ([3]; Cowpox virus, HFF) was 200 nM.

`CC(C)CCCCCCCCCCCCCCCCOCCOP(=O)(O)CO[C@H](CO)Cn1cnc2c(N)ncnc21` [17M-ODE-(S)-HPMPA, 2-(17-methyloctadecyloxy)ethyl (S)-HPMPA] showed an EC50 [1] of 9 nM, a CC50 (HFF cells; Table 4, neutral-red uptake) of 800 nM and an EC50 [3] of 11 nM.

`CCCCCCCCCCCCCCCCOCCOP(=O)(O)COC(CO)Cn1cnc2c(N)ncnc21` (stereo not shown) [HDE-HPMPA, reference compound] gave an EC50 [2, 7] of 50 nM.

In the case of `CCCCCCCCCCCCCCCCOCCCOP(=O)(O)CO[C@H](CO)Cn1cnc2c(N)ncnc21` [HDP-(S)-HPMPA, reference compound], the EC50 [1] is reported as 10 nM, the “MDD, Mean day of death” value (ectromelia virus (ECTV); 2.5 mg/kg) is reported as 9.4 and the Mortality (ectromelia virus (ECTV); 2.5 mg/kg) is reported as 5/5. For the same compound, the “MDD, Mean day of death” value (ectromelia virus (ECTV); 5 mg/kg) was 11, the Mortality (ectromelia virus (ECTV); 5 mg/kg) was 1/5 and the Mortality (ectromelia virus (ECTV); 10 mg/kg) was 0/5. The CC50 (HFF cells; Table 4, neutral-red uptake) was 31800 nM and the EC50 [3] was 18 nM.

With `CC(C)CCCCCCCCCCCCCCOCCCOP(=O)(O)CO[C@H](CO)Cn1cnc2c(N)ncnc21` [15M-HDP-(S)-HPMPA, 3-(15-methylhexadecyloxy)propyl (S)-HPMPA] the EC50 [1] was 12 nM, the “activity relative to HDP-(S)-HPMPA in lethal ectromelia infection” value (ectromelia virus (ECTV)) was “more active than HDP-(S)-HPMPA” and the “MDD, Mean day of death” value (ectromelia virus (ECTV); 2.5 mg/kg) was 14.3. The Mortality (ectromelia virus (ECTV); 2.5 mg/kg) was 3/5, the Mortality (ectromelia virus (ECTV); 5 mg/kg) was 0/5 and the Mortality (ectromelia virus (ECTV); 10 mg/kg) was 0/5. It also gave a CC50 (HFF cells; Table 4, neutral-red uptake) of 27500 nM and an EC50 [3] of 52 nM.

For `CC(C)CCCCCCCCCCCCCCOCCCOP(=O)(O)CO[C@H](CO)Cn1ccc(N)nc1=O` [Compound 15M-HDP-CDV, 15-methyl-hexadecyloxypropyl cidofovir], the EC50 [1] was 100 nM, the “degradation by human liver S9 fractions (% of drug remaining versus time), relative to HDP-CDV” value [5] was “markedly slower” and the “degradation by monkey liver S9 fractions (% of drug remaining versus time), relative to HDP-CDV” value [6] was “markedly slower”. For the same compound, the EC50 [2, 7] was 40 nM, the CC50 (HFF cells; Table 3, neutral-red uptake) was 15200 ± 5500 nM and the EC50 [3] was 340 nM.

With `CC(C)CCCCCCCCCCCOCCCOP(=O)(O)CO[C@H](CO)Cn1ccc(N)nc1=O` [Compound 12M-TrDP-CDV, 12-methyl-tridecyloxypropyl cidofovir] the EC50 [1] was 700 nM, the EC50 [2, 7] was 940 nM and the CC50 (HFF cells; Table 3, neutral-red uptake) was 44000 ± 5400 nM. It also gave an EC50 [3] of 900 nM.

“17-methyl-octadecyloxyethyl cidofovir [Compound 17M-ODE-CDV]” gave an EC50 [1] of 32 nM, an EC50 [2, 7] of 80 nM and a CC50 (HFF cells; Table 3, neutral-red uptake) of 15000 ± 4000 nM. It also gave an EC50 [3] of 50 nM.
